From PubChem BioAssay AID318 (DTP/NCI, 2004)
Inconclusive results and toxic doses are left out. Rule for the calls: active = survival T/C of 150% or more; inactive = T/C below 125% in these data. Starred links: 1 amine or outer side, 2 acyl side, 3 side chain; linkers in the order of their positions; H or OH if unused. Positions of bridges follow the written chain, without caps; N, C: chain ends. Non-standard residues stand in square brackets, D forms with d. Residues, ends and D or L forms follow the SMILES beside them. Chains are numbered I, II in the order given. Actinocin(9to1) = Cc1c2oc3c(C)ccc(C(=O)[*:1])c3nc-2c(C(=O)[*:2])c(N)c1=O; NMeV = CN[CH](C(=O)O)C(C)C; Aze = O=C(O)[CH]1CCN1; Sar = CNCC(=O)O

Test system: BDF1 mice, P815 leukemia ip, survival T/C
Assay: NCI In Vivo Anticancer Drug Screen. Data for tumor model P815 Mast Cell Leukemia (Ascitic) (intraperitoneal) in B6D2F1 (BDF1) mice
Settings: endpoint: median survival time, vehicle: saline + alcohol, higher = longer survival
Protocol: The antitumor activity of compounds was measured in mice bearing transplantable tumors. Survival or tumor size were measured and the results are expressed as the measurement made in the treated group (T) divided by the measurement made in the vehicle treated control group (C). The tumor model used in this assay is P815 Mast Cell Leukemia (Ascitic) (intraperitoneal) in B6D2F1 (BDF1) mice

Measured: T/C

Cc1c2oc3c(C)ccc(C(=O)NC4C(=O)NC(C(C)C)C(=O)N5CCC5C(=O)N(C)CC(=O)N(C)C(C(C)C)C(=O)OC4C)c3nc-2c(C(=O)NC2C(=O)NC(C(C)C)C(=O)N3CCC3C(=O)N(C)CC(=O)N(C)C(C(C)C)C(=O)OC2C)c(N)c1=O (configuration not stated) (I: TV[Aze][Sar][NMeV] / II: TV[Aze][Sar][NMeV]; ester I:1-I:C, II:1-II:C; linker I:N-II:N via Actinocin(9to1); configuration not given here)
inactive: dose: 270.0 micrograms/kg/injection, schedule: Q04DX003 (ip) 118 % of control | dose: 450.0 micrograms/kg/injection, schedule: Q01DX001 (ip) 118 % of control | dose: 450.0 micrograms/kg/injection, schedule: Q04DX003 (ip) 113 % of control | dose: 750.0 micrograms/kg/injection, schedule: Q01DX001 (ip) 121 % of control | dose: 750.0 micrograms/kg/injection, schedule: Q04DX003 (ip) 97 % of control | dose: 1250.0 micrograms/kg/injection, schedule: Q01DX001 (ip) 105 % of control | dose: 1250.0 micrograms/kg/injection, schedule: Q04DX003 (ip) 92 % of control
